Assay results reported in US6346603B1, “Crystal of depsipeptide derivative and process for producing the same” (Fujisawa Pharmaceutical Co., Ltd., priority 1997, dated 2002).

What was measured:
Assay type in all cases: physicochemical
[1] = Filtration properties during crystallization, observed with the naked eye; parameters: key: ⊚: very great filtration properties; ◯: good filtration properties; Δ: poor filtration properties; X: very poor filtration properties; conditions: observation with the naked eye
Procedure: (§1) The crystals (I), (II) and (III) of the depsipeptide derivative (IV), thus recovered in the aforementioned manners, were examined about the filtration properties during crystallization, the specific volume and water content, by using the prior art crystal (V) for comparison.
The filtration properties during crystallization were evaluated on the following standards under observation with the naked eye.
⊚: very great filtration properties
◯: good filtration properties
Δ: poor filtration properties
X: very poor filtration properties

[2] = Water content after standing at ambient temperature to constant weight; conditions: left to stand at ambient temperature until weight reached constant value
Procedure: as §1
As to the water content, additionally, each crystal was left to stand at ambient temperature until its weight reached constant value, wherein an amount of water containing in the crystal was measured in %.

[3] = Fluidity (adhesion properties) of the crystal; conditions: not shown in Table 6; adhesion to machines during production

Filtration property during crystallization [1]	Water content [2]	Fluidity (adhesion properties) [3]	SMILES
×	3.16%		CC(C)CC1C(=O)OC(Cc2ccc(N3CCOCC3)cc2)C(=O)N(C)C(CC(C)C)C(=O)OC(C)C(=O)CCCCN1C (stereo not shown) [Crystal (I)]
⊚	0.98%	great fluidity	CC(C)CC1C(=O)OC(Cc2ccc(N3CCOCC3)cc2)C(=O)N(C)C(CC(C)C)C(=O)OC(C)C(=O)CCCCN1C (stereo not shown) [Crystal (II)]
◯	0.20%		CC(C)CC1C(=O)OC(Cc2ccc(N3CCOCC3)cc2)C(=O)N(C)C(CC(C)C)C(=O)OC(C)C(=O)CCCCN1C (stereo not shown) [Crystal (III)]
×	2.45%	poor fluidity	CC(C)CC1C(=O)OC(Cc2ccc(N3CCOCC3)cc2)C(=O)N(C)C(CC(C)C)C(=O)OC(C)C(=O)CCCCN1C (stereo not shown) [Prior art Crystal (V), reference compound]
